Earlier results as cited in patent US8193376B2, “Artemisinin derivatives with natural amino acids, peptides, and amino sugars for the treatment of infection and topical condition in mammals” (Bioderm Research, priority 2007, dated 2012).

Assays:
[1] = test system: nucleic acid synthesis; conditions: relative to artemisinin
[2] = test system: malaria; conditions: relative to artemisinin

| Compound | ability to inhibit nucleic acid synthesis, times the activity of artemisinin [1] [times] | antimalarial potency, times that of artemisinin [2] [times] | antimalarial potency higher than that of artemisinin [2] [%] |
| --- | --- | --- | --- |
| CO[C@H]1O[C@@H]2O[C@@]3(C)CC[C@H]4[C@H](C)CC[C@@H]([C@H]1C)[C@@]24OO3 [Artemether] | 100 | 6 | – |
| C[C@H]1[C@H](OC(=O)CCC(=O)O)O[C@@H]2O[C@@]3(C)CC[C@H]4[C@H](C)CC[C@@H]1[C@@]24OO3 [Artesunate] | 100 | 5.2 | – |
| C[C@H]1[C@@H](O)O[C@@H]2O[C@@]3(C)CC[C@H]4[C@H](C)CC[C@@H]1[C@@]24OO3 [Dihydroartemisinin] | 100 | – | 60 |
| CCO[C@H]1O[C@@H]2O[C@@]3(C)CC[C@H]4[C@H](C)CC[C@@H]([C@H]1C)[C@@]24OO3 [arteether, Arteether] | 100 | – | – |
| CCCOC(=O)OC1O[C@@H]2O[C@@]3(C)CC[C@H]4[C@H](C)CC[C@@H]([C@H]1C)[C@@]24OO3 (some centres unmarked) [propylcarbonate dihydroartemisinin] | 100 | – | – |
